Results as given in US20260250626A1, “LACTOBACILLUS SALIVARIUS STRAINS AND USES THEREOF” (CHEMO RESEARCH, S.L., priority 2022, published 2026).
Values joined by “and” are separate entries in the source; they are usually repeats but may differ in a detail not shown here. Equal values may be shown once. Read-outs that look alike come from different tables or passages of the source.

How the values were obtained:
L. salivarius MP98 = assay: Sensitivity to antibiotics by E-test (MIC); type: cell-based, Ligilactobacillus salivarius; design: MIC value: unit not given here
[1] = Recurrent gout trial: gout episodes and intake of gout-related drugs; type: in vivo, human; settings: control group (allopurinol), individual patients 1-15
[2] = Recurrent gout trial: blood biochemical parameters (uric acid, lipids, transaminases); type: in vivo, human
[3] = Recurrent gout trial: oxidative stress (OS)-related parameters and NOx in plasma; type: in vivo, human
[4] = human, in vivo; cited from earlier work
[5] = drug intake recorded through the study
[6] = control group (allopurinol), individual patients 1-15, serum, after finishing the study
[7] = control group, before starting the study, individual patients 1-15
[8] = control group (allopurinol), individual patients 1-15, plasma, after finishing the study
[9] = control group, before starting the study, individual patients 1-15, normalized per mg protein
[10] = control group, before starting the study, individual patients 1-15, plasma concentration (µmol/L)
[11] = MIC of the antibiotic to L. salivarius MP98, E-test

## NC[C@H]1O[C@H](O[C@H]2[C@H](O)[C@@H](O[C@H]3O[C@H](CO)[C@@H](O)[C@H](N)[C@H]3O)[C@H](N)C[C@@H]2N)[C@H](O)[C@@H](O)[C@@H]1O [KAN, kanamycin]
L. salivarius MP98; Ligilactobacillus salivarius, MIC of the antibiotic to L. salivarius MP98
  MIC: 128 µg/mL

## Oc1ncnc2[nH]ncc12 [allopurinol]
[1]
  Gout episodes (during study period): 0 (2×) and 1 (8×) and 2 (4×) and 3
[1]; 9 months before the study (baseline)
  Gout episodes (9 previous months): 1 (5×) and 2 (8×) and 0 and 3
[1]; [5]
  Doses Allopurinol: 180 (4×) and 175 (2×) and 174 (2×) and 168 and 178 and 179 (2×) and 172 and 176 and 177
  Doses Colchicin: 0 (2×) and 4 (6×) and 8 (3×) and 2 (2×) and 12 and 6
  Doses ibuprofen and similar AINS: 0 (2×) and 8 and 12 (2×) and 6 (4×) and 16 and 4 (2×) and 1 and 3 (2×)
[2]; [6]
  GOT (UI/L): 20.05 UI/L and 22.63 UI/L and 37.84 UI/L and 37.28 UI/L and 33.57 UI/L and 27.60 UI/L and 37.24 UI/L and 21.94 UI/L and 40.68 UI/L and 41.07 UI/L and 39.21 UI/L and 31.82 UI/L and 32.99 UI/L and 38.57 UI/L and 32.42 UI/L
  GPT (UI/L): 19.97 UI/L and 27.46 UI/L and 44.90 UI/L and 27.61 UI/L (2×) and 43.27 UI/L and 53.45 UI/L and 34.73 UI/L and 27.08 UI/L and 59.99 UI/L and 53.87 UI/L and 35.57 UI/L and 39.40 UI/L and 44.47 UI/L and 33.84 UI/L
  Total cholesterol: 172.63 mg/dL and 176.04 mg/dL and 206.72 mg/dL and 196.82 mg/dL and 183.24 mg/dL and 194.32 mg/dL and 176.47 mg/dL and 170.51 mg/dL and 224.95 mg/dL and 199.08 mg/dL and 193.84 mg/dL and 181.94 mg/dL and 178.63 mg/dL and 187.14 mg/dL and 183.02 mg/dL
  Triglycerides: 157.81 mg/dL and 153.17 mg/dL and 169.90 mg/dL and 158.47 mg/dL and 165.58 mg/dL and 164.25 mg/dL and 162.81 mg/dL and 165.45 mg/dL and 189.72 mg/dL and 171.63 mg/dL and 154.57 mg/dL and 165.16 mg/dL and 163.83 mg/dL and 160.02 mg/dL and 168.91 mg/dL
  Uric acid: 7.11 mg/dl and 7.46 mg/dl and 9.68 mg/dl and 8.87 mg/dl and 7.64 mg/dl and 9.61 mg/dl and 8.69 mg/dl and 7.90 mg/dl and 10.92 mg/dl and 10.87 mg/dl and 9.12 mg/dl (2×) and 8.57 mg/dl and 10.49 mg/dl and 9.38 mg/dl
[2]; control group, 100-300 mg/daily for one year
  any parameter, T1 against T2 samples: no differences in any parameter
[2]; [7]
  GOT: 20.94 UI/L and 24.52 UI/L and 38.57 UI/L and 36.71 UI/L and 35.83 UI/L and 25.11 UI/L and 35.37 UI/L and 21.62 UI/L and 42.75 UI/L and 40.28 UI/L and 37.01 UI/L and 30.17 UI/L and 34.88 UI/L and 39.64 UI/L and 30.53 UI/L
  GPT: 19.32 UI/L and 25.75 UI/L and 47.78 UI/L and 29.19 UI/L and 42.81 UI/L and 55.07 UI/L and 30.64 UI/L and 25.55 UI/L and 54.98 UI/L and 49.91 UI/L and 37.56 UI/L and 30.07 UI/L and 40.39 UI/L and 45.29 UI/L and 30.37 UI/L
  Total cholesterol: 170.45 mg/dl and 179.39 mg/dl and 208.16 mg/dl and 195.37 mg/dl (2×) and 188.31 mg/dl and 192.43 mg/dl and 177.63 mg/dl and 169.04 mg/dl and 229.46 mg/dl and 197.18 mg/dl and 184.41 mg/dl and 176.25 mg/dl and 184.30 mg/dl and 185.19 mg/dl
  Triglycerides: 152.07 mg/dL and 151.28 mg/dL and 172.29 mg/dL and 155.83 mg/dL and 166.74 mg/dL and 162.41 mg/dL and 168.02 mg/dL and 162.33 mg/dL and 187.99 mg/dL and 172.25 mg/dL and 160.86 mg/dL and 162.25 mg/dL and 167.27 mg/dL and 162.91 mg/dL and 168.28 mg/dL
  Uric acid: 7.03 mg/dl and 7.53 mg/dl and 9.97 mg/dl and 8.44 mg/dl (2×) and 7.56 mg/dl and 9.99 mg/dl and 7.81 mg/dl and 10.64 mg/dl and 11.69 mg/dl and 9.20 mg/dl and 8.24 mg/dl and 10.05 mg/dl and 9.92 mg/dl and 9.06 mg/dl
[3]; [8]
  8-isoprostaglandin Fzs: 166.1 pg/mL and 162.9 pg/mL and 205.9 pg/mL and 164.8 pg/mL and 175.0 pg/mL and 192.4 pg/mL and 204.7 pg/mL and 165.2 pg/mL and 205.1 pg/mL and 207.1 pg/mL and 195.9 pg/mL and 164.5 pg/mL and 186.3 pg/mL and 191.9 pg/mL and 175.8 pg/mL
  AOPPs: 54.87 µmol/L and 57.96 µmol/L and 66.12 µmol/L and 58.27 µmol/L and 62.35 µmol/L and 64.76 µmol/L and 60.56 µmol/L and 57.71 µmol/L and 65.70 µmol/L and 63.68 µmol/L and 60.94 µmol/L and 59.37 µmol/L and 61.97 µmol/L and 64.14 µmol/L and 59.82 µmol/L
  AOPPs (nmol/mg protein): 0.72 nmol/mg protein and 0.75 nmol/mg protein (2×) and 0.83 nmol/mg protein (2×) and 0.76 nmol/mg protein (2×) and 0.78 nmol/mg protein (2×) and 0.80 nmol/mg protein (2×) and 0.77 nmol/mg protein and 0.82 nmol/mg protein and 0.81 nmol/mg protein (2×)
  MDA: 1.78 μmol/L and 1.83 μmol/L and 2.37 μmol/L and 1.84 μmol/L (2×) and 2.14 μmol/L and 2.09 μmol/L and 1.81 μmol/L (2×) and 2.29 μmol/L and 2.22 μmol/L and 2.01 μmol/L and 1.74 μmol/L and 2.27 μmol/L and 2.08 μmol/L
  NOx: 21.32 µmol/L and 19.26 µmol/L and 23.87 µmol/L and 22.75 µmol/L and 21.13 µmol/L and 24.97 µmol/L and 24.59 µmol/L and 22.33 µmol/L and 26.43 µmol/L and 28.07 µmol/L and 24.07 µmol/L and 24.81 µmol/L and 25.79 µmol/L and 25.95 µmol/L and 22.68 µmol/L
  Nitrate: 16.92 µmol/L and 16.86 µmol/L and 28.79 µmol/L and 19.85 µmol/L and 21.04 µmol/L and 23.87 µmol/L and 22.81 µmol/L and 17.40 µmol/L and 26.73 µmol/L and 27.47 µmol/L and 22.10 µmol/L and 17.49 µmol/L and 21.36 µmol/L and 25.27 µmol/L and 20.31 µmol/L
  Nitrite: 1.82 µmol/L and 1.87 µmol/L and 2.29 µmol/L and 1.67 µmol/L and 2.03 µmol/L and 2.24 µmol/L and 2.27 µmol/L and 1.84 µmol/L and 2.02 µmol/L and 2.22 µmol/L and 2.19 µmol/L and 1.77 µmol/L and 2.26 µmol/L and 2.20 µmol/L and 1.88 µmol/L
  SH groups: 429.5 µmol/L and 423.6 µmol/L and 448.1 µmol/L and 429.7 µmol/L and 435.4 µmol/L and 430.2 µmol/L and 431.0 µmol/L and 426.3 µmol/L and 451.8 µmol/L and 436.7 µmol/L and 436.1 µmol/L and 433.4 µmol/L and 436.8 µmol/L and 432.7 µmol/L and 431.3 µmol/L
  SH groups (nmol/mg protein): 5.19 nmol/mg protein and 5.21 nmol/mg protein and 5.72 nmol/mg protein and 5.41 nmol/mg protein (2×) and 5.42 nmol/mg protein and 5.36 nmol/mg protein and 5.23 nmol/mg protein and 6.02 nmol/mg protein and 5.59 nmol/mg protein and 5.48 nmol/mg protein and 5.47 nmol/mg protein and 5.43 nmol/mg protein and 5.74 nmol/mg protein and 5.52 nmol/mg protein
  TBARM: 22.89 µmol/L and 23.48 µmol/L and 29.92 µmol/L and 27.01 µmol/L and 27.83 µmol/L and 27.59 µmol/L and 29.04 µmol/L and 25.67 µmol/L and 25.91 µmol/L and 28.75 µmol/L and 26.32 µmol/L and 24.81 µmol/L and 27.09 µmol/L and 28.27 µmol/L and 24.86 µmol/L
[3]; [7]
  8-isoprostaglandin F2α: 161.7 pg/mL and 209.0 pg/mL and 162.6 pg/mL and 177.1 pg/mL and 195.2 pg/mL and 207.3 pg/mL and 160.9 pg/mL and 202.4 pg/mL and 207.5 pg/mL and 194.8 pg/mL and 166.1 pg/mL and 184.9 pg/mL and 195.7 pg/mL and 174.4 pg/mL and 162.2 pg/mL
  MDA: 1.86 μmol/L and 2.41 μmol/L (2×) and 1.78 μmol/L and 2.02 μmol/L and 1.99 μmol/L and 1.92 μmol/L and 1.79 μmol/L and 2.17 μmol/L and 2.09 μmol/L and 1.83 μmol/L and 2.19 μmol/L and 2.00 μmol/L and 1.87 μmol/L and 1.74 μmol/L
  NOx: 19.01 µmol/L and 18.98 µmol/L and 25.67 µmol/L and 21.48 µmol/L and 21.66 µmol/L and 25.18 µmol/L and 24.07 µmol/L and 20.01 µmol/L and 28.23 µmol/L and 27.09 µmol/L and 25.56 µmol/L and 22.29 µmol/L and 26.86 µmol/L and 24.48 µmol/L and 23.16 µmol/L
  Nitrate: 16.85 µmol/L and 16.77 µmol/L and 31.12 µmol/L and 19.64 µmol/L and 22.48 µmol/L and 23.99 µmol/L and 20.29 µmol/L and 16.93 µmol/L and 27.46 µmol/L and 28.65 µmol/L and 20.92 µmol/L and 17.03 µmol/L and 22.52 µmol/L and 24.81 µmol/L and 20.02 µmol/L
  Nitrite: 1.73 μmol/L and 1.81 μmol/L and 2.41 μmol/L and 1.79 μmol/L and 2.12 μmol/L and 2.11 μmol/L (2×) and 2.06 μmol/L and 1.71 μmol/L and 2.14 μmol/L (2×) and 2.27 μmol/L and 1.84 μmol/L and 2.21 μmol/L and 1.92 μmol/L
  TBARM: 22.93 µmol/L and 31.02 µmol/L and 24.76 µmol/L and 26.91 µmol/L and 28.14 µmol/L and 27.31 µmol/L and 24.97 µmol/L and 27.28 µmol/L and 27.99 µmol/L and 27.43 µmol/L and 23.07 µmol/L and 28.11 µmol/L and 28.00 µmol/L and 25.79 µmol/L and 23.16 µmol/L
[3]; [9]
  AOPPs: 0.74 nmol/mg protein and 0.83 nmol/mg protein and 0.75 nmol/mg protein (2×) and 0.78 nmol/mg protein and 0.81 nmol/mg protein (2×) and 0.77 nmol/mg protein (2×) and 0.73 nmol/mg protein (2×) and 0.84 nmol/mg protein and 0.82 nmol/mg protein and 0.79 nmol/mg protein and 0.80 nmol/mg protein
  SH groups: 5.23 nmol/mg protein and 5.84 nmol/mg protein and 5.37 nmol/mg protein and 5.44 nmol/mg protein and 5.45 nmol/mg protein and 5.39 nmol/mg protein and 5.11 nmol/mg protein and 6.10 nmol/mg protein and 5.54 nmol/mg protein and 5.59 nmol/mg protein and 5.42 nmol/mg protein and 5.48 nmol/mg protein and 5.79 nmol/mg protein and 5.51 nmol/mg protein and 5.14 nmol/mg protein
[3]; [10]
  AOPPs: 57.87 µmol/L and 65.77 µmol/L and 59.02 µmol/L and 62.29 µmol/L and 64.83 µmol/L and 60.36 µmol/L and 58.95 µmol/L and 65.81 µmol/L and 63.52 µmol/L and 61.07 µmol/L and 59.50 µmol/L and 61.92 µmol/L and 64.34 µmol/L and 59.71 µmol/L and 55.91 µmol/L
  SH groups: 425.7 μmol/L and 442.0 μmol/L and 427.9 μmol/L and 441.5 μmol/L and 432.7 μmol/L (2×) and 433.9 μmol/L and 425.9 μmol/L and 448.3 μmol/L and 434.9 μmol/L (2×) and 438.4 μmol/L and 435.1 μmol/L and 432.2 μmol/L and 426.6 μmol/L
[4]
  patients in gout therapy achieving serum urate levels <6 mg/dl (<0.35 mmol/L): 20-40%

## Cc1nc(-c2ccc(OCC(C)C)c(C#N)c2)sc1C(=O)O [febuxostat]
[4]
  patients in gout therapy achieving serum urate levels <6 mg/dl (<0.35 mmol/L): 45-67%

## gentamycin
L. salivarius MP98; [11]
  MIC value: 2

## penicillin
L. salivarius MP98
  MIC value: 0.25

## virginiamycin
L. salivarius MP98; [11]
  MIC value: 0.25
